# Measured values published in patent US8192962B2, “Processes for detecting toxic substances” (Daikin Industries, Ltd., priority 2001, dated 2012).
# System: Genes belonging to other category
# Assay: DNA chip mRNA expression in yeast, genes belonging to other category (Table 9)
# Assay type: cell-based, Saccharomyces cerevisiae S288C
# Outline: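 Cells were grown at 25° C. in YPD, treated at logarithmic phase for 2 h with a chemical at a concentration inhibiting growth but not causing death, and compared with untreated cultures. Labeled cDNA was hybridized to a DNA chip carrying all yeast genes, and the expression ratio was taken from scanner fluorescence.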
smiles,measurement,setting,value
"S=C([S-])NCCNC(=S)[S-].[Zn+2] [(11), zinc N,N′-ethylenebis(dithiocarbamate)]",The level of expressed mRNA in the presence of chemical substance/The level of expressed mRNA in the absence of chemical substance,yeast gene YNL083W,0.9
same,The level of expressed mRNA in the presence of chemical substance/The level of expressed mRNA in the absence of chemical substance,yeast gene YNL093W,1.6
same,The level of expressed mRNA in the presence of chemical substance/The level of expressed mRNA in the absence of chemical substance,yeast gene YNL135C,0.7
same,The level of expressed mRNA in the presence of chemical substance/The level of expressed mRNA in the absence of chemical substance,yeast gene YNL147W,1.2
same,The level of expressed mRNA in the presence of chemical substance/The level of expressed mRNA in the absence of chemical substance,yeast gene YNL196C,0.7
same,The level of expressed mRNA in the presence of chemical substance/The level of expressed mRNA in the absence of chemical substance,yeast gene YNL333W,2.0
same,The level of expressed mRNA in the presence of chemical substance/The level of expressed mRNA in the absence of chemical substance,yeast gene YNR010W,1.4
same,The level of expressed mRNA in the presence of chemical substance/The level of expressed mRNA in the absence of chemical substance,yeast gene YNR030W,1.2
same,The level of expressed mRNA in the presence of chemical substance/The level of expressed mRNA in the absence of chemical substance,yeast gene YNR034W,1.3
same,The level of expressed mRNA in the presence of chemical substance/The level of expressed mRNA in the absence of chemical substance,yeast gene YNR035C,1.5
same,The level of expressed mRNA in the presence of chemical substance/The level of expressed mRNA in the absence of chemical substance,yeast gene YNR047W,0.6
same,The level of expressed mRNA in the presence of chemical substance/The level of expressed mRNA in the absence of chemical substance,yeast gene YNR069C,2.5
same,The level of expressed mRNA in the presence of chemical substance/The level of expressed mRNA in the absence of chemical substance,yeast gene YOL005C,1.6
same,The level of expressed mRNA in the presence of chemical substance/The level of expressed mRNA in the absence of chemical substance,yeast gene YOL013C,1.4
same,The level of expressed mRNA in the presence of chemical substance/The level of expressed mRNA in the absence of chemical substance,yeast gene YOL164W,1.0
same,The level of expressed mRNA in the presence of chemical substance/The level of expressed mRNA in the absence of chemical substance,yeast gene YOR003W,0.7
same,The level of expressed mRNA in the presence of chemical substance/The level of expressed mRNA in the absence of chemical substance,yeast gene YOR023C,0.9
same,The level of expressed mRNA in the presence of chemical substance/The level of expressed mRNA in the absence of chemical substance,yeast gene YOR036W,1.3
same,The level of expressed mRNA in the presence of chemical substance/The level of expressed mRNA in the absence of chemical substance,yeast gene YOR058C,1.4
same,The level of expressed mRNA in the presence of chemical substance/The level of expressed mRNA in the absence of chemical substance,yeast gene YOR117W,1.2
same,The level of expressed mRNA in the presence of chemical substance/The level of expressed mRNA in the absence of chemical substance,yeast gene YOR124C,1.2
same,The level of expressed mRNA in the presence of chemical substance/The level of expressed mRNA in the absence of chemical substance,yeast gene YOR132W,1.3
same,The level of expressed mRNA in the presence of chemical substance/The level of expressed mRNA in the absence of chemical substance,yeast gene YOR148C,1.3
same,The level of expressed mRNA in the presence of chemical substance/The level of expressed mRNA in the absence of chemical substance,yeast gene YOR157C,1.6
same,The level of expressed mRNA in the presence of chemical substance/The level of expressed mRNA in the absence of chemical substance,yeast gene YOR181W,1.0
same,The level of expressed mRNA in the presence of chemical substance/The level of expressed mRNA in the absence of chemical substance,yeast gene YOR185C,1.2
same,The level of expressed mRNA in the presence of chemical substance/The level of expressed mRNA in the absence of chemical substance,yeast gene YOR198C,1.4
same,The level of expressed mRNA in the presence of chemical substance/The level of expressed mRNA in the absence of chemical substance,yeast gene YOR230W,1.6
same,The level of expressed mRNA in the presence of chemical substance/The level of expressed mRNA in the absence of chemical substance,yeast gene YOR259C,1.0
same,The level of expressed mRNA in the presence of chemical substance/The level of expressed mRNA in the absence of chemical substance,yeast gene YOR261C,2.1
same,The level of expressed mRNA in the presence of chemical substance/The level of expressed mRNA in the absence of chemical substance,yeast gene YOR265W,1.3
same,The level of expressed mRNA in the presence of chemical substance/The level of expressed mRNA in the absence of chemical substance,yeast gene YOR288C,1.4
same,The level of expressed mRNA in the presence of chemical substance/The level of expressed mRNA in the absence of chemical substance,yeast gene YOR298W,0.1
same,The level of expressed mRNA in the presence of chemical substance/The level of expressed mRNA in the absence of chemical substance,yeast gene YOR312C,0.8
same,The level of expressed mRNA in the presence of chemical substance/The level of expressed mRNA in the absence of chemical substance,yeast gene YOR355W,1.2
same,The level of expressed mRNA in the presence of chemical substance/The level of expressed mRNA in the absence of chemical substance,yeast gene YOR383C,1.4
same,The level of expressed mRNA in the presence of chemical substance/The level of expressed mRNA in the absence of chemical substance,yeast gene YPL089C,0.9
same,The level of expressed mRNA in the presence of chemical substance/The level of expressed mRNA in the absence of chemical substance,yeast gene YPL105C,0.6
same,The level of expressed mRNA in the presence of chemical substance/The level of expressed mRNA in the absence of chemical substance,yeast gene YPL109C,−0.2
same,The level of expressed mRNA in the presence of chemical substance/The level of expressed mRNA in the absence of chemical substance,yeast gene YPL149W,1.2
same,The level of expressed mRNA in the presence of chemical substance/The level of expressed mRNA in the absence of chemical substance,yeast gene YPL154C,1.8
same,The level of expressed mRNA in the presence of chemical substance/The level of expressed mRNA in the absence of chemical substance,yeast gene YPL177C,1.4
same,The level of expressed mRNA in the presence of chemical substance/The level of expressed mRNA in the absence of chemical substance,yeast gene YPL230W,3.1
same,The level of expressed mRNA in the presence of chemical substance/The level of expressed mRNA in the absence of chemical substance,yeast gene YPR028W,1.4
same,The level of expressed mRNA in the presence of chemical substance/The level of expressed mRNA in the absence of chemical substance,yeast gene YPR066W,0.9
same,The level of expressed mRNA in the presence of chemical substance/The level of expressed mRNA in the absence of chemical substance,yeast gene YPR081C,0.9
same,The level of expressed mRNA in the presence of chemical substance/The level of expressed mRNA in the absence of chemical substance,yeast gene YPR103W,0.9
same,The level of expressed mRNA in the presence of chemical substance/The level of expressed mRNA in the absence of chemical substance,yeast gene YPR108W,1.8
same,The level of expressed mRNA in the presence of chemical substance/The level of expressed mRNA in the absence of chemical substance,yeast gene YPR155C,0.9
same,The level of expressed mRNA in the presence of chemical substance/The level of expressed mRNA in the absence of chemical substance,yeast gene YPR185W,0.9
